Data reported in PMC5769128, “Human UDP-Glucuronosyltransferase 2B4 and 2B7 Are Responsible for Naftopidil Glucuronidation in Vitro” (Frontiers in Pharmacology, 2018).

Experiments:
Conditions in all cases: 10 μM substrate, 45 min
[1] = tested on: UGT1A1, 1A4, 1A3, 2B17, 1A8, 2B15, and 1A7; assay: UGT reaction screening of R(+)-NAF, minor isoforms; format: in vitro ADME, human
recombinant human UGT2B4 = target: T1, recombinant human UGT2B4 (Homo sapiens, UniProt P06133); assay: UGT reaction screening of NAF enantiomers, UGT2B4; format: in vitro ADME
T1 construct: purchased BD Gentest
T1 sequence (P06133 24-528): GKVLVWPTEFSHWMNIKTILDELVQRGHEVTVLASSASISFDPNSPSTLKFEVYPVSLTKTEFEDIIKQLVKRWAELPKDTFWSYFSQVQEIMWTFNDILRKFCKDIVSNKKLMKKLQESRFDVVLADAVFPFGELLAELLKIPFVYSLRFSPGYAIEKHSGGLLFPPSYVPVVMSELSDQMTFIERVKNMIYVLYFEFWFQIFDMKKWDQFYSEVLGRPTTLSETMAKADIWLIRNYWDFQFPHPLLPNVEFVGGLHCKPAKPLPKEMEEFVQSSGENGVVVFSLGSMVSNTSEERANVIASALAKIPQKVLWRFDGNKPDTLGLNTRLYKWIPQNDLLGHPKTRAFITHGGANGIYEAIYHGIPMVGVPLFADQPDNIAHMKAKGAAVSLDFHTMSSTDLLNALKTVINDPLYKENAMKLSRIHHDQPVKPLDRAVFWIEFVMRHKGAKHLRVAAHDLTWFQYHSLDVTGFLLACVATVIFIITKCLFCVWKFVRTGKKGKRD

[2] = tested on: UGT1A4, 1A3, 2B17, 2B15, 1A9, 1A8, and 1A7; assay: UGT reaction screening of S(-)-NAF, minor isoforms; format: in vitro ADME, human

COc1ccccc1N1CCN(C[C@@H](O)COc2cccc3ccccc23)CC1 [R(+)-NAF]
Glucuronidation activity, times lower than UGT2B7 [1]: more than 10 times

COc1ccccc1N1CCN(C[C@H](O)COc2cccc3ccccc23)CC1 [S(-)-NAF]
Glucuronidation activity of UGT2B4 compared with UGT2B7 (recombinant human UGT2B4): relatively higher activity than UGT2B7 | Glucuronidation activity [2]: a small amount of activity
